In patent publication US20180326102A1, “SYSTEMS, METHODS, AND COMPOSITIONS FOR IMAGING ANDROGEN RECEPTOR AXIS ACTIVITY IN CARCINOMA, AND RELATED THERAPEUTIC COMPOSITIONS AND METHODS” (Memorial Sloan Kettering Cancer Center, priority 2015, published 2018):
Square brackets hold non-standard residues; d marks the D form. Peptide text beside a SMILES is read from it. * marks the point of attachment. dPhe(4-NHCONH2) = NC(=O)Nc1ccc(C[C@@H](N)C(=O)O)cc1; Dihydroorotyl(S) = O=C1C[C@@H](C(=O)*)NC(=O)N1; dPhe(4-Cl) = N[C@H](Cc1ccc(Cl)cc1)C(=O)O; Phe(4-NH2) = Nc1ccc(C[C@H](N)C(=O)O)cc1; d2Nal = N[C@H](Cc1ccc2ccccc2c1)C(=O)O; Lys(iPr) = CC(C)NCCCC[C@H](N)C(=O)O; d3Pal = N[C@H](Cc1cccnc1)C(=O)O

What was measured:
Pb_KLK2×Hi-Myc mice = assay type: in vivo
Method: A final clinical simulation involved non-invasive imaging of the impact of different degrees of inhibition on AR activity in the tumor (intratumoral) and prostate itself (intraprostatic). Progression of disease was initially monitored in 14 Pb_KLK2 XHi-Myc mice using ^89Zr-11B6 PET. Thereafter, mice were randomized into 3 treatment groups: vehicle (n=4), castration (n=6), or castration plus Enzalutamide (n=4).
PET imaging experiments were conducted on a micro-PET Focus 120 scanner (Concorde Microsystems). In initial studies, mice (n=4) were administered formulations of ^89Zr-11B6 [3.7-5.55 MBq (100-150 μCi), 300, 100, 50, or 25 μg of protein, in 150 μL sterile saline for injection] through i.v. Tail-vein injection. Approximately 5 minutes before recording PET images, mice were anesthetized by inhalation of 1% to 2% isoflurane (Baxter Healthcare)/oxygen gas mixture and placed on the scanner bed. PET images were recorded at various time points between 1 and 344 hours post-injection. […] For all static images, scan time was adjusted to ensure between 15-25 million coincident events were recorded.
Site-directed mutagenesis of APLILSR to APLRTKR at positions […], -3, and -2 the zymogen sequence of KLK2 was performed using a Quick Change Lightning Mutagenesis Kit (Stratagene). […] Mice were monitored closely in accordance with IACUC-established guidelines and RARC animal protocol (#04-01-002).

VCaP = assay: 18F-FDHT imaging in VCaP bearing mouse; assay type: in vivo; details: 1.5 h after administration
Method: The distribution at 1.5 h after administration in a representative VCaP (arrow) bearing mouse. ^18F-FDHT is a radiolabeled analog of the non-aromatizable dihydrotestosterone.

For `CC(=O)N[C@H](Cc1ccc2ccccc2c1)C(=O)N[C@H](Cc1ccc(Cl)cc1)C(=O)N[C@H](Cc1cccnc1)C(=O)N[C@@H](CO)C(=O)N[C@@H](Cc1ccc(NC(=O)[C@@H]2CC(=O)NC(=O)N2)cc1)C(=O)N[C@H](Cc1ccc(NC(N)=O)cc1)C(=O)N[C@@H](CC(C)C)C(=O)N[C@@H](CCCCNC(C)C)C(=O)N1CCC[C@H]1C(=O)N[C@H](C)C(N)=O` [Degarelix] (Ac-[d2Nal][dPhe(4-Cl)][d3Pal]S[Phe(4-NH2)](Dihydroorotyl(S))[dPhe(4-NHCONH2)]L[Lys(iPr)]P[dA]-NH2), the “^89Zr-11B6 uptake (AR pathway readout) during GnRH antagonist therapy” value (Pb_KLK2×Hi-Myc mice; depot injections, androgen ablation for 2 months) was “decreased following castration but reemerged at the end of the treatment period”.

With `CC12CCC(=O)CC1CCC1C2CCC2(C)C(O)C([18F])CC12` (stereo not drawn) [^18F-FDHT] the “Liver, bile and kidney uptake relative to tumor uptake” value (VCaP) was “equivalent to or exceeds tumor uptake”.

In the case of `CNC(=O)c1ccc(N2C(=S)N(c3ccc(C#N)c(C(F)(F)F)c3)C(=O)C2(C)C)cc1F` [Enzalutamide], the “reactivation of ^89Zr-11B6 uptake (AR activity) after castration plus adjuvant androgen receptor blockade” value (Pb_KLK2×Hi-Myc mice; castration plus Enzalutamide, n=4) is reported as “not significant”.
